Laboratory results: PubChem BioAssay AID588439 (The Scripps Research Institute Molecular Screening Center, 2011)
Active and inactive are the calls of the source.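 How the source made its calls: active means EC50 at or below 10 µM; inactive means EC50 above 10 µM.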

molecular target: Insulin-degrading enzyme (Homo sapiens) (UniProt P14735); assay: activators of endogenous IDE in HEK cells, dose response, cell-based, fluorescence polarization (AID 588439); details: FAbeta-B cleavage fluorescence polarization
Sequence (P14735 whole entry, looked up): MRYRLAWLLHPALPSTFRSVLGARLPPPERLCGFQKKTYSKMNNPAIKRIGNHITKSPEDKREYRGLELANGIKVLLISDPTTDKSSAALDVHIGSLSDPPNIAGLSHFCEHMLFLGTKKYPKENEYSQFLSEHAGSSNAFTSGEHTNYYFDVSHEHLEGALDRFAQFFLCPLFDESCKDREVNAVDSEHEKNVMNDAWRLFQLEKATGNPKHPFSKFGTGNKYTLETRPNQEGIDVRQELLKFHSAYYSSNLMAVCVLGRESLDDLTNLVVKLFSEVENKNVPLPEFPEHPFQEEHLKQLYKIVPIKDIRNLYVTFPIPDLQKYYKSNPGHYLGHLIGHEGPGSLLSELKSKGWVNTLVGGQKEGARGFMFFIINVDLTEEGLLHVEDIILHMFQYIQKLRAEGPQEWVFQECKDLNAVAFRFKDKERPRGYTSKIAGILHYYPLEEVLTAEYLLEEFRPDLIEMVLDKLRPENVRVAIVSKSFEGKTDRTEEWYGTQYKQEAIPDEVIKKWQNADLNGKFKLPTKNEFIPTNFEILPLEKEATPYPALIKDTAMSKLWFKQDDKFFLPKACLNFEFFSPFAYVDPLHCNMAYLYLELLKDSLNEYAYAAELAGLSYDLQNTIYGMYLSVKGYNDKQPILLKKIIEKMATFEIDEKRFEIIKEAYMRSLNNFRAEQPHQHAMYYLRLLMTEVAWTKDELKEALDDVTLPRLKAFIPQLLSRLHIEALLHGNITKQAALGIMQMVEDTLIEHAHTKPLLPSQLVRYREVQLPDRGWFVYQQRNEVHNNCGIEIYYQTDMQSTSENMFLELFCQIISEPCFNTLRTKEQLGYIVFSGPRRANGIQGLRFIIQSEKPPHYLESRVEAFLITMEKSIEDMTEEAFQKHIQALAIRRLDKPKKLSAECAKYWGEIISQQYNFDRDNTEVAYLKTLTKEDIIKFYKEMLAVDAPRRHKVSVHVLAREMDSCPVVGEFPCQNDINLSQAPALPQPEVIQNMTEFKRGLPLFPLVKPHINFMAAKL

EC50, inactive:
C#CCOCCOCCOCCNc1nc(N2CCN(C(=O)CCCCCCCCCCNC(=O)Cn3cc(CCCCCN)nn3)CC2)nc(N2CCN(C(=O)CCCCCCCCCCNC(=O)Cn3cc(C[C@@H](C)O)nn3)CC2)n1 > 54.7 µM, C#CCOCCOCCOCCNc1nc(N2CCN(C(=O)CCCCCCCCCCNC(=O)[C@H](CO)n3cc(CCCSC)nn3)CC2)nc(N2CCN(C(=O)CCCCCCCCCCNC(=O)[C@H](CCCCN)n3cc(CCO)nn3)CC2)n1 > 54.7 µM, C#CCOCCOCCOCCNc1nc(N2CCN(C(=O)CCCCCCCCCCNC(=O)[C@H](CCCCN)n3cc(CCO)nn3)CC2)nc(N2CCN(C(=O)CCCCCCCCCCNC(=O)[C@H](CCCN=C(N)N)n3cc(C[C@@H](C)CC)nn3)CC2)n1 > 54.7 µM, C#CCOCCOCCOCCNc1nc(N2CCN(C(=O)CCCCCCCCCCNC(=O)Cn3cc(C[C@@H](C)O)nn3)CC2)nc(N2CCN(C(=O)CCCCCCCCCCNC(=O)[C@H](CCCN=C(N)N)n3cc(C[C@@H](C)CC)nn3)CC2)n1 > 54.7 µM
